In ChEMBL document CHEMBL5512651, “Synthesis and biological evaluation of 4-imidazolidinone-containing compounds as potent inhibitors of the MDM2/p53 interaction” (Eur J Med Chem, 2024):
The source made the active and inactive calls. The rule behind the calls is not given here.

What was measured:
MOLM-13 [1] = assay: cells; conditions: Homo sapiens, MOLM-13, 48 h
[2] = molecular target: Tumour suppressor p53/oncoprotein Mdm2 (Homo sapiens, UniProt Q00987); assay: Inhibition of MDM2/p53 (unknown origin) interaction by fluorescence polarization assay; type: protein assay
Tumour suppressor p53/oncoprotein Mdm2, sequence (P04637 whole entry): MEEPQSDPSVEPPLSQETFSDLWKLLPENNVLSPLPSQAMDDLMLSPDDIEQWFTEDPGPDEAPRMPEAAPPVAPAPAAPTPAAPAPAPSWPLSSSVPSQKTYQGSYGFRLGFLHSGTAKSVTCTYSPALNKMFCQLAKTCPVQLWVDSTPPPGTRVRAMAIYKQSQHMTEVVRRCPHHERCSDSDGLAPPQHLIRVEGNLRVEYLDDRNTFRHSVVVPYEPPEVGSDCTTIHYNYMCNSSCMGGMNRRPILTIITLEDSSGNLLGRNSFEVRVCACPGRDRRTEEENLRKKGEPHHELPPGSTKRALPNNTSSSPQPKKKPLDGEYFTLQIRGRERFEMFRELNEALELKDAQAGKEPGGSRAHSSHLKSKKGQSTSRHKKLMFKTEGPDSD
Tumour suppressor p53/oncoprotein Mdm2, sequence (Q00987 whole entry): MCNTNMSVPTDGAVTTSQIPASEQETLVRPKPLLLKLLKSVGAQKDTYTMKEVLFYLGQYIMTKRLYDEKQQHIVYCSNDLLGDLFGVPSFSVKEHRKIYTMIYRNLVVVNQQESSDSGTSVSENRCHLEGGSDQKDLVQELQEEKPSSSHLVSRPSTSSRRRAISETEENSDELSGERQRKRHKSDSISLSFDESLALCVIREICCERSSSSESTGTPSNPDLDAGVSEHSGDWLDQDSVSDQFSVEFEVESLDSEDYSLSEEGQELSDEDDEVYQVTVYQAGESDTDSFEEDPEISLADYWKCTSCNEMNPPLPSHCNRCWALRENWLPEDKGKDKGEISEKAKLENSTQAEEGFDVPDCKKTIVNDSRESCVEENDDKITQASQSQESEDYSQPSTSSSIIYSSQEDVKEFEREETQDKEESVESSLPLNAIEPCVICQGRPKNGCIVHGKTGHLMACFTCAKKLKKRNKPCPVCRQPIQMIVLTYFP

HCT-116 = assay: cells; conditions: Homo sapiens, HCT-116, 96 h
[3] = molecular target: Tumour suppressor protein p53/Mdm4 (Homo sapiens, UniProt O15151); assay: Inhibition of MDM4/p53 (unknown origin) interaction by fluorescence polarization assay; type: protein assay
Tumour suppressor protein p53/Mdm4, sequence (P04637 whole entry): as the sequence (P04637 whole entry) above
Tumour suppressor protein p53/Mdm4, sequence (O15151 whole entry): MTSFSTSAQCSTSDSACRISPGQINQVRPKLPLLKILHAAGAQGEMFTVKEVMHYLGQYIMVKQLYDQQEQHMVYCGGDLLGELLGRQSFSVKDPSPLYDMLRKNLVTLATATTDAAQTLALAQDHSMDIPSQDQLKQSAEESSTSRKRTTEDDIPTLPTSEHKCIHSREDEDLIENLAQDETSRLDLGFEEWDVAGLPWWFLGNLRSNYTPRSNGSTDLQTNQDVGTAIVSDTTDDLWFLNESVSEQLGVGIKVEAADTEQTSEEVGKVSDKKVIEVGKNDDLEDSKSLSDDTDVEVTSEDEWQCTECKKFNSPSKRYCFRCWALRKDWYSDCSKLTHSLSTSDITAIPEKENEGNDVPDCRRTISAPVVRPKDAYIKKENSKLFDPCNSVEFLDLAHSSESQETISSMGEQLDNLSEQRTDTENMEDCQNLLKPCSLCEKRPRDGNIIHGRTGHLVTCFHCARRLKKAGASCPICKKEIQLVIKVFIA

A549 = assay: cells; conditions: Homo sapiens, A549, 96 h
SW480 = assay: cells; conditions: Homo sapiens, SW480, 96 h
MOLM-13 [4] = assay: Induction of apoptosis in human MOLM-13 cells assessed as increase in caspase-3 level at 0.15 to 0.6 uM incubated for 24 hrs by Western blot analysis; type: functional, cell-based; conditions: dose 0.15-0.6 µM
HeLa = assay: cells; conditions: Homo sapiens, 96 h
[5] = molecular target: Cellular tumor antigen p53 (Homo sapiens) (UniProt P04637); assay: Activation of p53 pathway in human MOLM-13 cells assessed as increase in PUMA mRNA level incubated for 24 hrs by qPCR analysis; type: cell-based; conditions: filed as activator, dose 0.038-0.6 µM
Cellular tumor antigen p53 (Homo sapiens), sequence (P04637 whole entry, looked up): as the sequence (P04637 whole entry) above

[6] = molecular target: Cellular tumor antigen p53 (Homo sapiens) (UniProt P04637); assay: Activation of p53 pathway in human MOLM-13 cells assessed as increase in p21 mRNA level incubated for 24 hrs by qPCR analysis; type: cell-based; conditions: filed as activator, dose 0.038-0.6 µM
MOLM-13 [7] = assay: Induction of apoptosis in human MOLM-13 cells assessed as increase in PARP cleavage at 0.15 to 0.6 uM incubated for 24 hrs by Western blot analysis; type: functional, cell-based; conditions: dose 0.15-0.6 µM
[8] = molecular target: Cellular tumor antigen p53 (Homo sapiens) (UniProt P04637); assay: Activation of p53 pathway in human MOLM-13 cells assessed as increase in MDM2 level incubated for 24 hrs by Western blot analysis; type: cell-based; conditions: filed as activator, dose 0.038-0.6 µM
[9] = molecular target: Cellular tumor antigen p53 (Homo sapiens) (UniProt P04637); assay: Activation of p53 pathway in human MOLM-13 cells assessed as increase in p21 level incubated for 24 hrs by Western blot analysis; type: cell-based; conditions: filed as activator, dose 0.038-0.6 µM
[10] = molecular target: Cellular tumor antigen p53 (Homo sapiens) (UniProt P04637); assay: Activation of p53 pathway in human MOLM-13 cells assessed as increase in MDM2 mRNA level incubated for 24 hrs by qPCR analysis; type: cell-based; conditions: filed as activator, dose 0.038-0.6 µM
[11] = Selectivity index, ratio of IC50 for HEK293 cells to IC50 for human HeLa cells; type: toxicity; conditions: HEK293 cells versus HeLa cells, read-out: Ratio IC50
[12] = molecular target: Cellular tumor antigen p53 (Homo sapiens) (UniProt P04637); assay: Activation of p53 pathway in human MOLM-13 cells assessed as increase in BAX mRNA level incubated for 24 hrs by qPCR analysis; type: cell-based; conditions: filed as activator, dose 0.038-0.6 µM
[13] = molecular target: Cellular tumor antigen p53 (Homo sapiens) (UniProt P04637); assay: Activation of p53 pathway in human MOLM-13 cells assessed as increase in p53 level incubated for 24 hrs by Western blot analysis; type: cell-based; conditions: filed as activator, dose 0.038-0.6 µM
[14] = Selectivity index, ratio of IC50 for HEK293 cells to IC50 for human SW480 cells
[15] = Selectivity index, ratio of IC50 for HEK293 cells to IC50 for human A549 cells; type: toxicity; conditions: HEK293 cells versus A549 cells, read-out: Ratio IC50
[16] = Antiproliferative activity against HEK293 cells incubated for 4 days by CCK8 assay; type: toxicity, cell-based; conditions: human
MOLM-13 [17] = assay: Induction of apoptosis in human MOLM-13 cells at 0.375 to 6 uM incubated for 24 hrs by Western blot analysis; type: functional, cell-based; conditions: dose 0.375-6 µM

SMILES | IC50 (MOLM-13 [1]) [nM] | Ki [2] [nM] | IC50 (HCT-116) [nM] | Ki [3] [nM] | other results
COc1cc(C(=O)O)ccc1N1CN2[C@@H](CC3(C)CCCC3)[C@@]3(CNc4cc(Cl)ccc43)[C@@H](c3cccc(Cl)c3)[C@@H]2C1=O | 17 | 0.6 | 121 | 734 | –
CCN1[C@@H](CC(C)(C)C)[C@@]2(CNc3cc(Cl)ccc32)[C@@H](c2cccc(Cl)c2)[C@@H]1C(=O)Nc1ccc(C(=O)O)cc1OC | 0.2 | – | 13.6 | – | –
COc1cc(C(=O)O)ccc1N1CN2[C@@H](CC(C)(C)C)[C@@]3(CNc4cc(Cl)ccc43)[C@@H](c3cccc(Cl)c3F)[C@@H]2C1=O | 0.9 | 3.1 | 49.7 | 3110 | –
COc1cc(C(=O)O)ccc1N1CN2[C@@H](CC(C)(C)C)[C@@]3(CNc4ccc(Cl)cc43)[C@@H](c3ccccc3Cl)[C@@H]2C1=O | 7280 | 1090 | 12700 | > 27000 | –
CCC(C)(C)C[C@@H]1N2CN(c3ccc(C(=O)O)cc3OC)C(=O)[C@H]2[C@H](c2cccc(Cl)c2)[C@]12CNc1cc(Cl)ccc12 | 5.5 | 1 | 28.5 | 1130 | IC50 (A549): 102 nM; IC50 (SW480): 4920 nM; Activity (MOLM-13 [4]): Active; IC50 (HeLa): 11800 nM; Activity [5]: Dose-Dependent Effect; Activity [6]: Dose-Dependent Effect; Activity (MOLM-13 [7]): Active; Activity [8]: Dose-Dependent Effect; Activity [9]: Dose-Dependent Effect; Activity [10]: Dose-Dependent Effect; selectivity ratio [11]: 0.8; Activity [12]: Dose-Dependent Effect; Activity [13]: Dose-Dependent Effect; Ratio IC50 [14]: 1.9; selectivity ratio [15]: 93; IC50 at 4 days [16]: 9530 nM
COc1cc(C(=O)O)ccc1N1CN2[C@@H](CC(C)(C)C)[C@@]3(CNc4ccc(Cl)cc43)[C@@H](c3cccc(Cl)c3Cl)[C@@H]2C1=O | 7590 | 152 | 9740 | > 27000 | –
COc1cccc([C@H]2[C@@H]3C(=O)N(c4ccc(C(=O)O)cc4OC)CN3[C@@H](CC(C)(C)C)[C@@]23CNc2cc(Cl)ccc23)c1 | 944 | 5.3 | 1420 | > 27000 | –
COc1cc(C(=O)O)ccc1N1CN2[C@@H](CC(C)(C)C(C)C)[C@@]3(CNc4cc(Cl)ccc43)[C@@H](c3cccc(Cl)c3)[C@@H]2C1=O | 33.1 | 1.3 | 88.7 | 1120 | –
COc1cc(C(=O)O)ccc1N1CN2[C@@H](CC(C)(C)C)[C@@]3(CNc4cc(Cl)ccc43)[C@@H](c3ccccc3F)[C@@H]2C1=O | 1640 | 14.8 | 3900 | > 27000 | –
COc1cc(C(=O)O)ccc1N1CN2[C@@H](CC(C)(C)C)[C@@]3(CNc4ccc(Cl)cc43)[C@@H](c3ccc(Cl)cc3)[C@@H]2C1=O | 8400 | > 27000 | 12800 | > 27000 | –
COc1cc(C(=O)O)ccc1N1CN2[C@@H](CC(C)(C)C)[C@@]3(CNc4cc(Cl)ccc43)[C@@H](c3cccc(F)c3F)[C@@H]2C1=O | 56.5 | 3.1 | 285 | > 27000 | –
COc1cc(C(=O)O)ccc1N1CN2[C@@H](CC(C)(C)C)[C@@]3(CNc4cc(Cl)ccc43)[C@@H](c3ccccc3Cl)[C@@H]2C1=O | 5490 | 32.8 | 9060 | > 27000 | –
COc1cc(C(=O)O)ccc1N1CN2[C@@H](CC(C)(C)C)[C@@]3(CNc4ccc(Cl)cc43)[C@@H](c3cccc(Cl)c3)[C@@H]2C1=O | 2580 | 67.4 | 8620 | > 27000 | –
COc1cc(C(=O)O)ccc1N1CN2[C@@H](CC(C)(C)C)[C@@]3(CNc4cc(Cl)ccc43)[C@@H](c3cccc(F)c3)[C@@H]2C1=O | 39.8 | 1.2 | 137 | 3950 | –
COc1cc(C(=O)O)ccc1N1CN2[C@@H](CC3(C)CCCCC3)[C@@]3(CNc4cc(Cl)ccc43)[C@@H](c3cccc(Cl)c3)[C@@H]2C1=O | 35.5 | 2.7 | 136 | > 27000 | –
COc1ccc(C2=N[C@@H](c3ccc(Cl)cc3)[C@@H](c3ccc(Cl)cc3)N2C(=O)N2CCNC(=O)C2)c(OC(C)C)c1 [NUTLIN-3] | 199 | – | – | – | IC50 (A549): 2050 nM; IC50 (SW480): 16400 nM; IC50 (HeLa): 31400 nM; Activity (MOLM-13 [17]): Active; IC50 at 4 days [16]: 26700 nM
COc1cc(C(=O)O)ccc1N1CN2[C@@H](CC(C)(C)C)[C@@]3(CNc4cc(Cl)ccc43)[C@@H](c3cccc(Cl)c3Cl)[C@@H]2C1=O | 1370 | 7.6 | 2560 | 5000 | –
COc1cc(C(=O)O)ccc1N1CN2[C@@H](CC(C)(C)C)[C@@]3(CNc4cc(Cl)ccc43)[C@@H](c3ccc(F)cc3)[C@@H]2C1=O | 529 | 9.6 | 1300 | > 27000 | –
COc1cc(NC(=O)[C@@H]2N[C@@H](CC(C)(C)C)[C@](C#N)(c3ccc(Cl)cc3F)[C@H]2c2cccc(Cl)c2F)ccc1C(=O)O | 24.8 | – | 104 | 1690 | IC50 (A549): 373 nM; IC50 (SW480): 5460 nM; IC50 (HeLa): 13200 nM; IC50 at 4 days [16]: 9080 nM
COc1cc(C(=O)O)ccc1N1CN2[C@@H](CC(C)(C)C)[C@@]3(CNc4cc(Cl)cnc43)[C@@H](c3cccc(Cl)c3)[C@@H]2C1=O | 204 | 1.2 | 610 | 3630 | –
CC(C)(C)C[C@@H]1N[C@@H](C(=O)N[C@H]2CC[C@H](O)CC2)[C@H](c2cccc(Cl)c2F)[C@]12C(=O)Nc1cc(Cl)ccc12 [SAR-405838] | 115 | – | 227 | 36800 | –
COc1cc(C(=O)O)ccc1N1CN2[C@@H](CC3(C)CCOCC3)[C@@]3(CNc4cc(Cl)ccc43)[C@@H](c3cccc(Cl)c3)[C@@H]2C1=O | 139 | 2.7 | 562 | 3370 | –
COc1cc(C(=O)O)ccc1N1CN2[C@@H](CC(C)(C)C)[C@@]3(CNc4cc(Cl)ccc43)[C@@H](c3cccc(C(F)(F)F)c3)[C@@H]2C1=O | 6280 | 50.5 | 6860 | 5740 | –
COc1cc(C(=O)O)ccc1N1CN2[C@@H](CC(C)(C)C)[C@@]3(CNc4cc(Cl)ccc43)[C@@H](c3cccc(C)c3)[C@@H]2C1=O | 295 | 5.2 | 844 | 2170 | –
COc1cc(C(=O)O)ccc1N1CN2[C@@H](CC(C)(C)C)[C@@]3(CNc4cc(Cl)ccc43)[C@@H](c3ccc(Cl)cc3)[C@@H]2C1=O | 2200 | 27.9 | 2580 | > 27000 | –
CCC(C)(CC)C[C@@H]1N2CN(c3ccc(C(=O)O)cc3OC)C(=O)[C@H]2[C@H](c2cccc(Cl)c2)[C@]12CNc1cc(Cl)ccc12 | 28.3 | 1.2 | 165 | 854 | –
COc1cc(C(=O)O)ccc1N1CN2[C@@H](CC3(C)CCC3)[C@@]3(CNc4cc(Cl)ccc43)[C@@H](c3cccc(Cl)c3)[C@@H]2C1=O | 380 | 1 | 598 | 1770 | –
